target: Human Factor D (Homo sapiens (Human), UniProt P00746); assay: Human Factor D Assay; format: biochemical; details: Factor D inhibition, assay of Example 10; read-out: IC5 (Stars)
Outline: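 Serum-purified Factor D (80 nM final) preincubated 5 min at room temperature with compound in 50 mM Tris, 1 M NaCl, pH 7.5. Z-L-Lys-SBz and DTNB added at 100 μM each; A405 followed every 30 s for 30 min. IC50 from nonlinear regression of rates versus concentration.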

Chain of Human Factor D (P00746 26-253): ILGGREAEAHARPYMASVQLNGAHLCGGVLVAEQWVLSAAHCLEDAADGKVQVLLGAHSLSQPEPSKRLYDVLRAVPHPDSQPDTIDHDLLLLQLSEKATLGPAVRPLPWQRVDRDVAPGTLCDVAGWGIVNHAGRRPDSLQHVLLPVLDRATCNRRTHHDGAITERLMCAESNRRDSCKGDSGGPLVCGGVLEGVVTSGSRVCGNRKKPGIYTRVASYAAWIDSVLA

Row | Compound | IC50
1 | CC(=O)c1cn(CC(=O)N2[C@H](C(=O)Nc3nc(Br)c(F)cc3C)C[C@@]3(C)C[C@@H]23)c2c(C)nc(-c3cnc(C)nc3)cc12 [Compound 471] | < 1000 nM
2 | CC(=O)c1nn(CC(=O)N2C[C@H](F)C[C@H]2C(=O)N(C)c2cccc(Br)n2)c2ccc(-c3cnc(C)nc3)cc12 [Compound 446, (2S,4R)-1-(2-(3-acetyl-5-(2-methylpyrimidin-5-yl)-1H-indazol-1-yl)acetyl)-N-(6-bromopyridin-2-yl)-4-fluoro-N-methylpyrrolidine-2-carboxamide] | > 10000 nM
3 | CC(=O)c1nn(CC(=O)N2[C@H](C(=O)Nc3nc(Br)ccc3C)C[C@@]3(CCC(F)F)C[C@@H]23)c2cnc(-c3cnc(C)nc3)cc12 [Compound 327] | < 1000 nM
4 | CC(=O)c1nn(CC(=O)N2[C@H](C(=O)Nc3nc(Br)ccc3C)C[C@@]3(CN4CCOCC4)C[C@@H]23)c2c(C)cc(-c3cnc(C)nc3)cc12 [Compound 305, (1R,3S,5R)-2-(2-(3-acetyl-7-methyl-5-(2-methylpyrimidin-5-yl)-1H-indazol-1-yl)acetyl)-N-(6-bromo-3-methylpyridin-2-yl)-5-(morpholinomethyl)-2-azabicyclo[3.1.0]hexane-3-carboxamide] | < 1000 nM
5 | CC(=O)c1nn(CC(=O)N2C[C@](C)(F)C[C@H]2C(=O)Nc2nc(Br)ccc2C)c2ccc(-c3cnc(C)nc3)cc12 [Compound 430, (2S,4R)-1-{2-[3-Acetyl-5-(2-methylpyrimidin-5-yl)indazol-1-yl]acetyl}-N-(6-bromo-3-methylpyridin-2-yl)-4-fluoro-4-methylpyrrolidine-2-carboxamide] | < 1000 nM
6 | CC(=O)c1nn(CC(=O)N2[C@H](C(=O)N[C@@H](CC(C)C)C(=O)O)C[C@@]3(C)C[C@@H]23)c2c(C)cc(-c3cnc(C)nc3)cc12 [Compound 458, ((1R,3S,5R)-2-(2-(3-acetyl-7-methyl-5-(2-methylpyrimidin-5-yl)-1H-indazol-1-yl)acetyl)-5-methyl-2-azabicyclo[3.1.0]hexane-3-carbonyl)-L-leucine] | < 1000 nM
7 | Cc1ncc(-c2cc(C)c3c(c2)c(C#N)nn3CC(=O)N2[C@H](C(=O)Nc3nc(Br)ccc3C)C[C@@]3(C)C[C@@H]23)cn1 [Compound 407, (1R,3S,5R)-N-(6-bromo-3-methylpyridin-2-yl)-2-(2-(3-cyano-7-methyl-5-(2-methylpyrimidin-5-yl)-1H-indazol-1-yl)acetyl)-5-methyl-2-azabicyclo[3.1.0]hexane-3-carboxamide] | < 1000 nM
8 | CC(=O)c1nn(CC(=O)N2[C@H](C(=O)Nc3nc(Br)ccc3CN(C)C)C[C@@]3(C)C[C@@H]23)c2cc(Cl)c(-c3cnc(C)nc3)cc12 [Compound 399, (1R,3S,5R)-2-(2-(3-acetyl-6-chloro-5-(2-methylpyrimidin-5-yl)-1H-indazol-1-yl)acetyl)-N-(6-bromo-3-((dimethylamino)methyl)pyridin-2-yl)-5-methyl-2-azabicyclo[3.1.0]hexane-3-carboxamide] | < 1000 nM
9 | CC(=O)c1nn(CC(=O)N2C[C@H]3C[C@H]3[C@H]2C(=O)NCc2cccc(Cl)c2F)c2c(C)cc(-c3cnc(C)nc3)cc12 [Compound 413] | < 1000 nM
10 | CC(=O)c1nn(CC(=O)N2[C@H](C(=O)Nc3nc(Br)ccc3Cl)C[C@@]3(C)C[C@@H]23)c2ccc(-c3cnc(C)nc3)cc12 [Compound 386, (1R,3S,5R)-2-(2-(3-acetyl-5-(2-methylpyrimidin-5-yl)-1H-indazol-1-yl)acetyl)-N-(6-bromo-3-chloropyridin-2-yl)-5-methyl-2-azabicyclo[3.1.0]hexane-3-carboxamide] | < 1000 nM
11 | CC(=O)c1nn(CC(=O)N2[C@H](C(=O)Nc3nc(OC(F)(F)F)ccc3C)C[C@@]3(C)C[C@@H]23)c2cnc(-c3cnc(C)nc3)cc12 [Compound 256] | < 1000 nM

same assay, conditions: Table 6; Factor D 80 nM, substrate Z-L-Lys-SBz; read-out: IC50

Row | Compound | IC50
12 | COCc1ccc(Br)c(NC(=O)[C@@H]2CC3(CNC(=O)[C@@H](NC(=O)OC)C(C)C)CC3N2C(=O)Cn2nc(C(C)=O)c3cc(-c4cnc(C)nc4)ccc32)n1 (stereo partly drawn) [Compound 48, methyl ((2S)-1-((((3S)-2-(2-(3-acetyl-5-(2-methylpyrimidin-5-yl)-1H-indazol-1-yl)acetyl)-3-((3-bromo-6-(methoxymethyl)pyridin-2-yl)carbamoyl)-2-azabicyclo[3.1.0]hexan-5-yl)methyl)amino)-3-methyl-1-oxobutan-2-yl)carbamate] | > 10000 nM
13 | COC(=O)N[C@H](C(=O)NC[C@@]12C[C@@H](C(=O)Nc3nc(Br)ccc3C)N(C(=O)Cn3nc(C(C)=O)c4cc(-c5cnc(C)nc5)cc(C)c43)[C@@H]1C2)C(C)C [Compound 99, methyl ((S)-1-((((lR,3S,5R)-2-(2-(3-acetyl-7-methyl-5-(2-methylpyrimidin-5-yl)-1H-indazol-1-yl)acetyl)-3-((6-bromo-3-methylpyridin-2-yl)carbamoyl)-2-azabicyclo[3.1.0]hexan-5-yl)methyl)amino)-3-methyl-1-oxobutan-2-yl)carbamate] | < 1000 nM
14 | CC(=O)c1nn(CC(=O)N2[C@H](C(=O)Nc3nc(Br)c(F)cc3C)C[C@@]3(C)C[C@@H]23)c2cnc(-c3cnc(N)nc3)cc12 [Compound 195, (1R,3S,5R)-2-(2-(3-Acetyl-5-(2-aminopyrimidin-5-yl)-1H-pyrazolo[3,4-c]pyridin-1-yl)acetyl)-N-(6-bromo-5-fluoro-3-methylpyridin-2-yl)-5-methyl-2-azabicyclo[3.1.0]hexane-3-carboxamide] | < 1000 nM
15 | CC(=O)c1nn(CC(=O)N2C3CC3(CN3CC4CC(C4)C3)C[C@H]2C(=O)Nc2nc(Br)ccc2C)c2ccc(-c3cnc(C)nc3)cc12 (stereo partly drawn) [Compound 12] | < 1000 nM
16 | CC(=O)c1nn(CC(=O)N2[C@H](C(=O)Nc3nc(Br)ccc3C)C[C@@]3(Cn4cc(C5CC5)nn4)C[C@@H]23)c2ccc(-c3cnc(C)nc3)cc12 [Compound 201, (1R,3S,5R)-2-(2-(3-acetyl-5-(2-methylpyrimidin-5-yl)-1H-indazol-1-yl)acetyl)-N-(6-bromo-3-methylpyridin-2-yl)-5-((4-cyclopropyl-1H-1,2,3-triazol-1-yl)methyl)-2-azabicyclo[3.1.0]hexane-3-carboxamide] | < 1000 nM
17 | COc1ncc(-c2cc3c(C(C)=O)nn(CC(=O)N4[C@H](C(=O)Nc5nc(Br)ccc5C)C[C@@]5(C)C[C@@H]45)c3cn2)cn1 [Compound 193, (1R,3S,5R)-2-(2-(3-Acetyl-5-(2-methoxypyrimidin-5-yl)-1H-pyrazolo[3,4-c]pyridin-1-yl)acetyl)-N-(6-bromo-3-methylpyridin-2-yl)-5-methyl-2-azabicyclo[3.1.0]hexane-3-carboxamide] | < 1000 nM
18 | CC(=O)c1nn(CC(=O)N2[C@H](C(=O)Nc3nc(Br)ccc3C)C[C@@]3(CN4CCN(C)CC4)C[C@@H]23)c2c(C)cc(-c3cnc(C)nc3)cc12 [Compound 69, (1R,3S,5R)-2-(2-(3-Acetyl-7-methyl-5-(2-methylpyrimidin-5-yl)-1H-indazol-1-yl)acetyl)-N-(6-bromo-3-methylpyridin-2-yl)-5-((4-methylpiperazin-1-yl)methyl)-2-azabicyclo[3.1.0]hexane-3-carboxamide] | < 1000 nM

same assay, conditions: Table 8; Factor D 80 nM, substrate Z-L-Lys-SBz; read-out: IC50

Row | Compound | IC50
19 | CC(=O)c1nn(CC(=O)N2[C@H](C(=O)NCCCCCCc3ccccc3)C[C@@]3(C)C[C@@H]23)c2c(C)cc(-c3cnc(C)nc3)cc12 [Compound 540, (1R,3S,5R)-2-(2-(3-acetyl-7-methyl-5-(2-methylpyrimidin-5-yl)-1H-indazol-1-yl)acetyl)-5-methyl-N-(6-phenylhexyl)-2-azabicyclo[3.1.0]hexane-3-carboxamide] | 1000 to 10000 nM
20 | CCCCCCCCCCCCCCCC(=O)NCCCC[C@H](NC(=O)[C@H](CCC(=O)O)NC(=O)[C@H](Cc1ccc(O)cc1)NC(=O)[C@H](CCC(=O)O)NC(C)=O)C(=O)N[C@@H](CCC(=O)O)C(=O)N[C@@H](Cc1ccc(O)cc1)C(=O)N[C@@H](CCC(=O)O)C(=O)NCCOCCOCCOCCOCCOCCOCCOCCOCCOCCOCCOCCOCCOCCOCCOCCOCCOCCOCCOCCOCCOCCOCCOCCOCCC(=O)NC[C@@]12C[C@@H](C(=O)Nc3nc(Br)ccc3C)N(C(=O)Cn3nc(C(C)=O)c4cc(-c5cnc(C)nc5)cc(C)c43)[C@@H]1C2 [Compound 535] | 1000 to 10000 nM
21 | CC(=O)c1nn(CC(=O)N2[C@H](C(=O)Nc3nc(Br)ccc3C)C[C@@]3(CN(C)C)C[C@@H]23)c2c(C3CC3)cc(-c3cnc(C)nc3)cc12 [Compound 317, (1R,3S,5R)-2-(2-(3-acetyl-7-cyclopropyl-5-(2-methylpyrimidin-5-yl)-1H-indazol-1-yl)acetyl)-N-(6-bromo-3-methylpyridin-2-yl)-5-((dimethylamino)methyl)-2-azabicyclo[3.1.0]hexane-3-carboxamide] | < 1000 nM
22 | Cc1ncc(-c2ccc3c(c2)c(C(=O)NCC2CC2)nn3CC(=O)N2[C@H](C(=O)Nc3nc(Br)ccc3C)C[C@@]3(C)C[C@@H]23)cn1 [Compound 478, 1-(2-((1R,3S,5R)-3-((6-bromo-3-methylpyridin-2-yl)carbamoyl)-5-methyl-2-azabicyclo[3.1.0]hexan-2-yl)-2-oxoethyl)-N-(cyclopropylmethyl)-5-(2-methylpyrimidin-5-yl)-1H-indazole-3-carboxamide] | < 1000 nM
23 | COC(=O)CCCCCCCCCCCCCCCCC(=O)N[C@@H](CCC(=O)NCCOCCOCC(=O)NCCOCCOCC(=O)NCc1ncc(-c2cc(C)c3c(c2)c(C(C)=O)nn3CC(=O)N2[C@H](C(=O)Nc3nc(Br)ccc3C)C[C@@]3(C)C[C@@H]23)cn1)C(=O)O [Compound 403] | < 1000 nM
24 | C=CCCCCCCc1cc(-c2cnc(C)nc2)cc2c(C(C)=O)nn(CC(=O)N3[C@H](C(=O)Nc4nc(Br)ccc4CC=C)C[C@@]4(C)C[C@@H]34)c12 [Compound 343, (1R,3S,5R)-2-(2-(3-acetyl-5-(2-methylpyrimidin-5-yl)-7-(oct-7-en-l-yl)-1H-indazol-1-yl)acetyl)-N-(3-allyl-6-bromopyridin-2-yl)-5-methyl-2-azabicyclo[3.1.0]hexane-3-carboxamide] | < 1000 nM

From patent US11084800B2 (Achillion Pharmaceuticals, Inc., priority 2017, dated 2021)
